Target: T1, human GPR39 receptor (Homo sapiens, UniProt O43194)
T1 construct: PC3 Cells, Expressing the Endogenous Human GPR39 Receptor; endogenous in cells; host or cells: PC3 (human prostate adenocarcinoma) cells
T1 sequence (O43194 1-453): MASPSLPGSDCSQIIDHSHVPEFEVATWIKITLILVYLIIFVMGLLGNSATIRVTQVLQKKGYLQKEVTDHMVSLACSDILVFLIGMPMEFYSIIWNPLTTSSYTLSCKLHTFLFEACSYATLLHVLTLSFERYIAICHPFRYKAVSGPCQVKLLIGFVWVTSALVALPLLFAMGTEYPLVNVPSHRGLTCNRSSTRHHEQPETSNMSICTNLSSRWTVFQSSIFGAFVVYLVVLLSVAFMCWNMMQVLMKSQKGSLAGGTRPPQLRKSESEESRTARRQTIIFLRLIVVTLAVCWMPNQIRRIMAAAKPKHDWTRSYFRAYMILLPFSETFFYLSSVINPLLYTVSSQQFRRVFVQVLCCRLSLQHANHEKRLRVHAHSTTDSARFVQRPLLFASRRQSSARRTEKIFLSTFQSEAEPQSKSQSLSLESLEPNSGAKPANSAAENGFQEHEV
Assay: Measurement of intracellular calcium response in PC3 cells (FLIPR), antagonism of the C3 agonist response
Format: cell-based
Conditions: functional pKi (modified Cheng-Prusoff); for Ki: inhibition of the C3 (TC-G 1008) response at EC90, 30 μM ZnCl2, read-out: fpKi activity
How it was run: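 Potency was reported as fpKi, converted by modified Cheng-Prusoff from four-parameter IC50 fits against an EC90 C3 agonist challenge. Calcium-6 FLIPR readings used PC3 cells naturally expressing human GPR39, in pH 7.4 HEPES buffer containing 30 μM final ZnCl2. Score bands: +/± <5.2, + 5.2–5.9, ++ 6.0–6.5, +++ 6.6–7.2, ++++ ≥7.3.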

Compound	Ki	fpKi activity (inhibition of the C3 (TC-G 1008) response at EC90, 30 μM ZnCl2)
CN1CCN(C(=O)c2ccc(NC(=O)C3CC3)cc2N2CCC(F)(F)C2)C(c2ccccc2)C1 (racemic) [Example 202c, N-[3-(3,3-difluoropyrrolidin-1-yl)-4-(4-methyl-2-phenylpiperazine-1-carbonyl)phenyl]cyclopropanecarboxamide]	63.1 to 251 nM	
CN1CCN(C(=O)c2ccc(NC(=O)C3CC3)cc2N2CCCCCC2)C(c2cccs2)C1 (single isomer, unassigned) [Example 69b, N-(3-(azepan-1-yl)-4-(4-methyl-2-(thiophen-2-yl)piperazine-1-carbonyl)phenyl) cyclopropane carboxamide]	≤ 50.1 nM	
CC1CC(C)CN(c2cc(NC(=O)C3CC3)ccc2C(=O)N2CCN(C)CC2c2ccccc2)C1 (single isomer, unassigned) [Example 68e, Anti N-[3-[3,5-dimethylpiperidin-1-yl]-4-(4-methyl-2-phenylpiperazine-1-carbonyl)phenyl]cyclopropanecarboxamide]	63.1 to 251 nM	
O=C(Nc1ccc(C(=O)N2CCC(F)CC2)c(N2CCCC2)c1)C1CC1 [Example 168, N-[4-(4-fluoropiperidine-1-carbonyl)-3-pyrrolidin-1-ylphenyl]cyclopropanecarboxamide]	316 to 1000 nM	
CN1CCN(C(=O)c2ccc(NC(=O)C3CC3)nc2N2CCC(F)(F)CC2)C(c2ccccc2)C1 (racemic) [Example 146, N-[6-(4,4-difluoropiperidin-1-yl)-5-(4-methyl-2-phenylpiperazine-1-carbonyl)pyridin-2-yl]cyclopropanecarboxamide]	63.1 to 251 nM	
CN1CCN(C(=O)c2ccc(NC(=O)C3CC3)cc2N2CCCCCC2)C(c2ccccn2)C1 (stereo not drawn) [Example 74, N-[3-(azepan-1-yl)-4-(4-methyl-2-pyridin-2-ylpiperazine-1-carbonyl)phenyl]cyclopropanecarboxamide]	1260 to 6310 nM	
Cc1cc(C(F)(F)F)nn1-c1cc(NC(=O)C2CC2)ccc1C(=O)N1CCS(=O)(=O)CC1 [Example 178, N-[4-(1,1-dioxo-1,4-thiazinane-4-carbonyl)-3-[5-methyl-3-(trifluoromethyl)pyrazol-1-yl]phenyl]cyclopropanecarboxamide]	63.1 to 251 nM	
Cn1c(-c2ccccc2)nnc1-c1ccc(NC(=O)C2CC2)cc1N1CCCCCC1 [Example 112, N-[3-(azepan-1-yl)-4-(4-methyl-5-phenyl-1,2,4-triazol-3-yl)phenyl]cyclopropanecarboxamide]	316 to 1000 nM	
Cc1nnc(-c2ccc(C(=O)N3CCN(C)CC3c3ccccc3)c(N3CCCC3)c2)[nH]1 (racemic) [Example 150c, (4-methyl-2-phenylpiperazin-1-yl)-[4-(5-methyl-4H-1,2,4-triazol-3-yl)-2-pyrrolidin-1-ylphenyl]methanone]	63.1 to 251 nM	
Cc1noc(C)c1CN1CCN(C(=O)c2ccc(NC(=O)C3CC3)cc2N2CCCCCC2)C(c2ccccc2)C1 (stereo not drawn) [Example 81, N-[3-(azepan-1-yl)-4-[4-[(3,5-dimethyl-1,2-oxazol-4-yl)methyl]-2-phenylpiperazine-1-carbonyl]phenyl]cyclopropanecarboxamide]	316 to 1000 nM	
CCCN1CCN(C(=O)c2ccc(NC(=O)C(C)C)cc2N2CCCCCC2)CC1 [Example 93, N-(3-(azepan-1-yl)-4-(4-propylpiperazine-1-carbonyl)phenyl)isobutyramide]	316 to 1000 nM	
O=C(Nc1ccc(C(=O)N2CCS(=O)(=O)CC2)c(N2CCCC(C(F)(F)F)C2)c1)C1CC1 (single isomer, unassigned) [Example 185b, N-[4-(1,1-dioxo-1,4-thiazinane-4-carbonyl)-3-[3R or 3S-(trifluoromethyl)piperidin-1-yl]phenyl]cyclopropanecarboxamide]	≤ 50.1 nM	
O=C(Nc1ccc(C(=O)N2CCN(Cc3ccon3)CC2c2ccccc2)c(N2CCCCCC2)c1)C1CC1 (stereo not drawn) [Example 82, N-[3-(azepan-1-yl)-4-[4-(1,2-oxazol-3-ylmethyl)-2-phenylpiperazine-1-carbonyl]phenyl]Cyclopropanecarboxamide]	≤ 50.1 nM	
CN(C)C(=O)N1CCN(C(=O)c2ccc(NC(=O)C3CC3)cc2N2CCCC2)C(c2ccccc2)C1 (stereo not drawn) [Example 216, 4-[4-(cyclopropanecarbonylamino)-2-pyrrolidin-1-ylbenzoyl]-N,N-dimethyl-3-phenylpiperazine-1-carboxamide]	63.1 to 251 nM	
C[C@@H]1C[C@H](C)CN(c2cc(NC(=O)C3CC3)ccc2-c2ncc3n2CCN(C)C3)C1 [Example 104b, N-[3-(3,5-dimethylpiperidin-1-yl)-4-(7-methyl-6,8-dihydro-5H-imidazo[1,5-a]pyrazin-3-yl)phenyl] cyclopropanecarboxamide]	63.1 to 251 nM	
O=C(Nc1ccc(C(=O)N2CCC(C(F)(F)F)CC2)c(N2CCCC2)n1)C1CC1 [Example 107, N-[6-pyrrolidin-1-yl-5-[4-(trifluoromethyl)piperidine-1-carbonyl]pyridin-2-yl]Cyclopropanecarboxamide]	≤ 50.1 nM	
CN1CCN(C(=O)c2ccc(NC(=O)C3CC3)cc2N2CCC3(CCC3)C2)C(c2ccccc2)C1 (single isomer, unassigned) [Example 66b, N-[3-(6-azaspiro[3.4]octan-6-yl)-4-(4-methyl-2-phenylpiperazine-1-carbonyl)phenyl]cyclopropanecarboxamide]	316 to 1000 nM	
C[C@@H]1C[C@H](C)CN(c2cc(NC(=O)C3CC3)ccc2-c2nnc(Sc3ccccc3)n2C)C1 [Example 114b, N-[3-(3,5-dimethylpiperidin-1-yl)-4-(4-methyl-5-phenylsulfanyl-1,2,4-triazol-3-yl)phenyl]cyclopropanecarboxamide]	63.1 to 251 nM	
CCCN1CCN(C(=O)c2ccc(NC(=O)C3CC3)cc2NC2CCCC2)CC1 [Example 20, N-[3-(cyclopentylamino)-4-(4-propylpiperazine-1-carbonyl)phenyl]cyclopropanecarboxamide]	316 to 1000 nM	
O=C(NCc1cccnc1)c1ccc(NC(=O)C2CC2)cc1N1CCCCCC1 [Example 44, 2-(azepan-1-yl)-4-(cyclopropanecarbonylamino)-N-(pyridin-3-ylmethyl)benzamide]	1260 to 6310 nM	
O=C(c1ccc(-c2nnc(C3CC3)[nH]2)cc1N1CCCC1)N1CCC(C(F)(F)F)CC1 [Example 154]	63.1 to 251 nM	
CN1CCN(C(=O)c2ccc(NC(=O)C3CC3)cc2N2CCCC2)C(c2ccc(F)cc2)C1 (racemic) [Example 89, N-[4-[2-(4-fluorophenyl)-4-methylpiperazine-1-carbonyl]-3-pyrrolidin-1ylphenyl]cyclopropanecarboxamide]	316 to 1000 nM	
Cc1ccn(-c2cc(NC(=O)C3CC3)ccc2C(=O)N2CCN(C)CC2c2ccccc2)n1 (single isomer, unassigned) [Example 155a, (2R or 2S) N-[4-(4-methyl-2-phenylpiperazine-1-carbonyl)-3-(3-methylpyrazol-1-yl)phenyl] cyclopropanecarboxamide]	316 to 1000 nM	
CN1CCN(C(=O)c2ccc(NC(=O)C3CC3)nc2N2CCC(F)(F)C2)C(c2ccccc2)C1 (racemic) [Example 148c, N-[6-(3,3-difluoropyrrolidin-1-yl)-5-(4-methyl-2-phenylpiperazine-1-carbonyl)pyridin-2-yl]cyclopropanecarboxamide]	63.1 to 251 nM	
(2R or 2S) N-[6-(3,3-difluoropyrrolidin-1-yl)-5-(4-methyl-2-phenylpiperazine-1-carbonyl)pyridin-2-yl]cyclopropanecarboxamide [Example 148b]		+ (An fpKi ranging from 5.2 to 5.9 is reported as “+”)
CC1CC(C)CN(c2cc(NC(=O)C3CC3)ccc2C(=O)N2CCN(C)CC2c2ccccc2)C1 (single isomer, unassigned) [Example 68a, Syn 2R or 2S N-[3-[3,5-dimethylpiperidin-1-yl]-4-(4-methyl-2-phenylpiperazine-1-carbonyl)phenyl] cyclopropanecarboxamide]	≤ 50.1 nM	
CS(=O)(=O)N1CCN(C(=O)c2ccc(NC(=O)C3CC3)cc2N2CCCC2)C(c2ccccc2)C1 (stereo not drawn) [Example 215, N-[4-(4-methylsulfonyl-2-phenylpiperazine-1-carbonyl)-3-pyrrolidin-1-ylphenyl]cyclopropanecarboxamide]	63.1 to 251 nM	
CC1CC(C)CN(c2cc(NC(=O)C3CC3)ccc2C(=O)N2CCN(C)CC2c2ccccc2)C1 (single isomer, unassigned) [Example 68b, Syn 2R or 2S N-[3-[3,5-dimethylpiperidin-1-yl]-4-(4-methyl-2-phenylpiperazine-1-carbonyl)phenyl] cyclopropanecarboxamide]	316 to 1000 nM	
CN1CCN(C(=O)c2ccc(NC(=O)C3CC3)cc2N2CCC(C(F)(F)F)C2)C(c2ccccc2)C1 (single isomer, unassigned) [Example 199d, (2S, 3R) or (2R, 3S) or (2R, 3R) or (2S, 3S) N-[4-(4-methyl-2-phenylpiperazine-1-carbonyl)-3-[3-(trifluoromethyl)pyrrolidin-1-yl]phenyl]cyclopropanecarboxamide]	316 to 1000 nM	
O=C(Nc1ccc(C(=O)N2CCNCC2c2ccccc2F)c(N2CCCC2)c1)C1CC1 (racemic) [Example 157]	1260 to 6310 nM	
